# Values joined by “and” are separate entries in the source; they are usually repeats but may differ in a detail not shown here. Equal entries are not always repeated. Results filed as inconclusive are left out.
# Test system: MX-1 breast xenograft, nude mice, tumor weight T/C
# Assay: NCI In Vivo Anticancer Drug Screen. Data for tumor model Human Mammary Carcinoma MX-1 Xenograft (intrarenal inoculation) in NU/NU Swiss (nude) mice
# Settings: endpoint: mean tumor weight change, higher = larger tumour
# Procedure, shortened: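 Read-out: treated (T) over vehicle control (C) ratio of survival or tumor size. Dosing in animals carrying the transplanted tumor.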
# [1] = dose: 150.0 mg/kg/injection, schedule: Q04DX003 (sc), vehicle: Klucel (hydroxypropylcellulose) (HPC)
# [2] = dose: 2400.0 mg/kg/injection, schedule: Q04DX003 (sc), vehicle: Klucel (hydroxypropylcellulose) (HPC)
# [3] = dose: 400.0 mg/kg/injection, schedule: Q04DX003 (sc), vehicle: saline with Tween-80
# [4] = dose: 800.0 mg/kg/injection, schedule: Q04DX003 (sc), vehicle: saline with Tween-80
# [5] = dose: 150.0 mg/kg/injection, schedule: Q04DX003 (sc), vehicle: saline
# [6] = dose: 37.5 mg/kg/injection, schedule: Q04DX003 (sc), vehicle: saline with Tween-80
# [7] = dose: 75.0 mg/kg/injection, schedule: Q04DX003 (sc), vehicle: saline with Tween-80
# [8] = dose: 150.0 mg/kg/injection, schedule: Q04DX003 (sc), vehicle: saline with Tween-80
# [9] = dose: 300.0 mg/kg/injection, schedule: Q04DX003 (sc), vehicle: saline with Tween-80
# [10] = dose: 200.0 mg/kg/injection, schedule: Q01DX010 (sc), vehicle: saline with Tween-80
# [11] = dose: 400.0 mg/kg/injection, schedule: Q01DX010 (sc), vehicle: saline with Tween-80
# [12] = dose: 100.0 mg/kg/injection, schedule: Q01DX010 (sc), vehicle: saline with Tween-80
# [13] = dose: 300.0 mg/kg/injection, schedule: Q04DX003 (sc), vehicle: Klucel (hydroxypropylcellulose) (HPC)
# [14] = dose: 600.0 mg/kg/injection, schedule: Q04DX003 (sc), vehicle: Klucel (hydroxypropylcellulose) (HPC)
# [15] = dose: 1200.0 mg/kg/injection, schedule: Q04DX003 (sc), vehicle: Klucel (hydroxypropylcellulose) (HPC)
# [16] = dose: 25.0 mg/kg/injection, schedule: Q04DX003 (sc), vehicle: other
structure (smiles),measurement,setting,value
CC1=CC(=Nc2ccc(N(CCCl)CCCl)cc2)C=C(C)C1=O,T/C,[1],34 % of control
same,T/C,[2],-89 % of control
O=C1NC(=O)C2C3C=CC(C12)C1C2C(=O)NC(=O)C2C31 (stereo not given),T/C,[3],68 % of control
same,T/C,[4],57 % of control
CCCCCCCCCCCCCCCCCCOCC(COP(=O)([O-])OCC[N+](C)(C)C)OC (stereo not given),T/C,[5],120 % of control
C=C(OP(=O)(OC)OC)Sc1ccccc1C,T/C,"dose: 0.2 mg/kg/injection, schedule: Q04DX003 (sc), vehicle: Klucel (hydroxypropylcellulose) (HPC)",65 % of control
same,T/C,"dose: 0.4 mg/kg/injection, schedule: Q04DX003 (sc), vehicle: Klucel (hydroxypropylcellulose) (HPC)",67 % of control
COC1/C=C/O[C@@]2(C)Oc3c(C)c(O)c4c(O)c(cc(O)c4c3C2=O)NC(=O)/C(C)=C\C=C\[C@H](C)C(O)[C@@H](C)[C@@H](O)[C@@H](C)[C@H](OC(C)=O)[C@@H]1C (stereo not given in full),T/C,"dose: 600.0 mg/kg/injection, schedule: Q04DX003 (sc), vehicle: suspension in saline",153 % of control
same,T/C,"dose: 2400.0 mg/kg/injection, schedule: Q04DX003 (sc), vehicle: suspension in saline",150 % of control
Cc1ccc2c(c1)N=C(Nc1ccccc1)N=S2(C)=O (stereo not given),T/C,"dose: 100.0 mg/kg/injection, schedule: Q04DX003 (sc), vehicle: saline with Tween-80",79 % of control
same,T/C,"dose: 200.0 mg/kg/injection, schedule: Q04DX003 (sc), vehicle: saline with Tween-80",78 % of control
same,T/C,[3],75 % of control
same,T/C,[4],60 % of control
COc1ccc(S(=O)(=O)N=N/C=C2\C=CC=CN2O)cc1OC,T/C,[6],81 % of control
same,T/C,[7],61 % of control
same,T/C,[8],47 % of control
same,T/C,[9],64 % of control
c1ccc2sc(SSN3CC4CCC(CC4)C3)nc2c1,T/C,[10],156 % of control
same,T/C,[11],95 % of control
COc1ccc2c(c1)CCC(c1ccccc1)=C2c1ccc(OCCN2CCCC2)cc1,T/C,"dose: 25.0 mg/kg/injection, schedule: Q04DX003 (sc), vehicle: Klucel (hydroxypropylcellulose) (HPC)",79 % of control
same,T/C,"dose: 50.0 mg/kg/injection, schedule: Q04DX003 (sc), vehicle: Klucel (hydroxypropylcellulose) (HPC)",72 % of control
same,T/C,"dose: 100.0 mg/kg/injection, schedule: Q04DX003 (sc), vehicle: Klucel (hydroxypropylcellulose) (HPC)",70 % of control
same,T/C,"dose: 200.0 mg/kg/injection, schedule: Q04DX003 (sc), vehicle: Klucel (hydroxypropylcellulose) (HPC)",67 % of control
N#CC(=C1C=CC(=NO)C=C1)c1ccc(Cl)cc1,T/C,[8],89 % of control
same,T/C,[9],122 % of control
same,T/C,"dose: 600.0 mg/kg/injection, schedule: Q04DX003 (sc), vehicle: saline with Tween-80",156 % of control
ClCCCCCCCCCCc1ccccc1,T/C,"dose: 100.0 mg/kg/injection, schedule: Q01DX010 (sc), vehicle: Klucel (hydroxypropylcellulose) (HPC)",89 % of control
same,T/C,"dose: 200.0 mg/kg/injection, schedule: Q01DX010 (sc), vehicle: Klucel (hydroxypropylcellulose) (HPC)",44 % of control
same,T/C,"dose: 400.0 mg/kg/injection, schedule: Q01DX010 (sc), vehicle: Klucel (hydroxypropylcellulose) (HPC)",116 % of control
same,T/C,"dose: 800.0 mg/kg/injection, schedule: Q01DX010 (sc), vehicle: Klucel (hydroxypropylcellulose) (HPC)",93 % of control
COc1ccc2cc1Oc1ccc(cc1)C[C@H]1c3cc(c(OC)cc3CCN1C)Oc1c(OC)c(OC)cc3c1[C@H](C2)N(C)CC3,T/C,[12],115 % of control
same,T/C,[10],42 % of control
same,T/C,[11],83 % of control
same,T/C,"dose: 800.0 mg/kg/injection, schedule: Q01DX010 (sc), vehicle: saline with Tween-80",44 % of control
O=C1OC(C(O)CO)C(O)=C1O (stereo not given),T/C,"dose: 200.0 mg/kg/injection, schedule: Q01DX010 (sc), vehicle: saline",107 % of control
same,T/C,"dose: 400.0 mg/kg/injection, schedule: Q01DX010 (sc), vehicle: saline",110 % of control
same,T/C,"dose: 1600.0 mg/kg/injection, schedule: Q01DX010 (sc), vehicle: saline",121 % of control
COc1ccc2c(ccc3oc([N+](=O)[O-])cc32)c1,T/C,[13],99 % of control
same,T/C,[14],72 % of control
same,T/C,[15],71 % of control
same,T/C,[2],36 % of control
CCOC(=O)Nc1cc2c(c(N)n1)N=C(c1ccc(Cl)cc1Cl)CN2,T/C,[6],79 % of control
same,T/C,[7],94 % of control
same,T/C,[8],103 % of control and 117 % of control
same,T/C,[9],81 % of control and 84 % of control
COc1cccc2c1C(=O)c1c(O)c3c(c(O)c1C2=O)C[C@@](O)(C(=O)CO)C[C@@H]3OC1CC(N)C(OC)C(C)O1 (stereo not given in full),T/C,"dose: 1.5 mg/kg/injection, schedule: Q01DX010 (sc), vehicle: saline",54 % of control
COc1cc2c(c(OC)c1OC)-c1ccc(OC)c(=O)cc1[C@@H](NC(C)=O)CC2,T/C,"dose: 0.25 mg/kg/injection, schedule: Q01DX010 (sc), vehicle: saline",94 % of control
same,T/C,"dose: 0.5 mg/kg/injection, schedule: Q01DX010 (sc), vehicle: saline",30 % of control
CSc1ccc2c(c1)C(N1CCN(C)CC1)Cc1ccccc1S2 (stereo not given),T/C,"dose: 12.5 mg/kg/injection, schedule: Q04DX003 (sc), vehicle: other",50 % of control
same,T/C,[16],23 % of control
same,T/C,"dose: 100.0 mg/kg/injection, schedule: Q04DX003 (sc), vehicle: other",42 % of control
COC(=O)NC1C(C)OC(OC2C/C=C(/C)C3C=CC4C(OC5CC(OC6CCC(OC7CC(O)C(OC8CCC(O)C(C)O8)C(C)O7)C(C)O6)C(OC(C)=O)C(C)O5)C(C)CC(C)C4C3(C)/C(O)=C3/C(=O)OC4(CC(C=O)=CC(O)C4/C=C\2C)C3=O)CC1(C)[N+](=O)[O-] (stereo not given),T/C,[16],95 % of control
same,T/C,"dose: 50.0 mg/kg/injection, schedule: Q04DX003 (sc), vehicle: other",71 % of control
CC(C)(C[NH-])C[NH-].[Cl][Pt+2][Cl],T/C,"dose: 1.5 mg/kg/injection, schedule: Q04DX003 (ip), vehicle: other",117 % of control
same,T/C,"dose: 1.5 mg/kg/injection, schedule: Q04DX003 (ip), vehicle: water",4 % of control
same,T/C,"dose: 3.0 mg/kg/injection, schedule: Q04DX003 (ip), vehicle: other",112 % of control
same,T/C,"dose: 3.0 mg/kg/injection, schedule: Q04DX003 (ip), vehicle: water",-58 % of control
same,T/C,"dose: 6.0 mg/kg/injection, schedule: Q04DX003 (ip), vehicle: water",-84 % of control
COC(=O)Nc1nc2ccc(SC)cc2c(=O)[nH]1,T/C,[1],83 % of control
same,T/C,[13],116 % of control
same,T/C,[14],92 % of control
same,T/C,[15],86 % of control
CCCCOC(=O)/C=C(\Br)C(=O)OCCCC,T/C,"dose: 50.0 mg/kg/injection, schedule: Q01DX010 (sc), vehicle: saline with Tween-80",102 % of control
same,T/C,[12],68 % of control
same,T/C,[10],191 % of control
same,T/C,[11],205 % of control
CS(=O)(=O)OCCCNCCCOS(C)(=O)=O,T/C,"dose: 18.75 mg/kg/injection, schedule: Q04DX003 (sc), vehicle: saline",61 % of control
same,T/C,"dose: 75.0 mg/kg/injection, schedule: Q04DX003 (sc), vehicle: saline",6 % of control and 7 % of control
same,T/C,[5],1 % of control
Nc1n[n+](-c2ccccc2)no1,T/C,"dose: 18.75 mg/kg/injection, schedule: Q04DX003 (sc), vehicle: water",70 % of control
same,T/C,"dose: 37.5 mg/kg/injection, schedule: Q04DX003 (sc), vehicle: water",94 % of control
same,T/C,"dose: 75.0 mg/kg/injection, schedule: Q04DX003 (sc), vehicle: water",59 % of control
CCCCCC(=O)O[C@]1(C(C)=O)CC[C@H]2[C@@H]3CCC4=CC(=O)CC[C@]4(C)[C@H]3CC[C@@]21C,T/C,[14],98 % of control
same,T/C,[2],85 % of control
O=C(O)C1CSCN1 (stereo not given),T/C,"dose: 50.0 mg/kg/injection, schedule: Q01DX010 (sc), vehicle: water",176 % of control

# From PubChem BioAssay AID296 (DTP/NCI, 2004)
